According to patent publication US12070477B2, “Lactobacillus sp. strain having ability to inhibit growth of vaginal pathogenic microorganisms” (KoBioLabs, Inc., priority 2015, dated 2024):

Test system: Gardnerella vaginalis
Experiment: Gardnerella vaginalis-infected mouse vaginitis model, microbiome analysis after vaginal administration
Assay type: in vivo, female mice (BALB/c mice)
Description: The hormone control and estrous cycle were induced by intraperitoneally injecting 0.5 mg of beta-esteradiol 3-benzonate to female mice (BALB/c mice). After three days, they were directly infected with Gardnerella vaginalis in the vagina at a concentration of 1×10^7 CFU per mouse to establish a vaginitis animal model. Thereafter, four kinds of Lactobacillus isolates corresponding to 10^8 to 10^9 CFU per mouse were vaginally administered (7 mice per group). On day 2, the total bacterial DNA was extracted from the vaginal samples washed with 0.1 mL of PBS (Phosphate Buffered Saline) and microbiome community analysis was performed to measure the relative abundance of Gardnerella vaginalis and other vaginal microbiota. […] The analyzed sequences were subjected to microbiome analysis including taxon profile, α-diversity and β-diversity showing the difference in community structure between groups through Qiime pipeline, and the change in the amount of Gardnerella vaginalis pathogens upon the administration of Lactobacillus isolates was evaluated by calculating relative abundances (/% GV treatment group).

Cc1ncc([N+](=O)[O-])n1CCO [MTZ, metronidazole]
community structure of the vaginal microflora (Unweighted UniFrac distance) (compared to Gardnerella vaginalis-infected control group, after 2 days of administration): no change in the community structure | Relative abundance (/% GV group) of Gardnerella vaginalis (vaginal administration after infection, day 2, 16S microbiome analysis, GV group = 100): 74.9 /% GV group
